From patent US20080200454A1, “CARBON-LINKED TETRAHYDRO-PYRAZOLO-PYRIDINE MODULATORS OF CATHEPSIN S” (priority 2007, published 2008)

target: Recombinant human cathepsin S (CatS) (Homo sapiens, UniProt P25774); test: Recombinant human cathepsin S (CatS) inhibition assay, fluorogenic substrate Z-Valine-Valine-Arginine-AMC; details: not given;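 note: Baculovirus-expressed CatS in pH 5.0 sodium acetate buffer with DTT and NaCl, fluorescence read each minute over 20 min, inhibition derived from rate slope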
Sequence (P25774 115-331): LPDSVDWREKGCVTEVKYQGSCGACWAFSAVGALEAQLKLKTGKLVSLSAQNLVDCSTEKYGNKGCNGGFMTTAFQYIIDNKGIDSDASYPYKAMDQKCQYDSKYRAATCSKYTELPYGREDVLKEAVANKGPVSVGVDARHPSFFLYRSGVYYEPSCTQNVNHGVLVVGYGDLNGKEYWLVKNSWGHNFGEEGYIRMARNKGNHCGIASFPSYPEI

| IC50 [nM] | SMILES |
| --- | --- |
| 1070 | CS(=O)(=O)N1CCc2c(c(-c3ccc(Cl)c(CCc4ccc(Oc5ccccc5)cc4)c3)nn2CCCN2CCOCC2)C1 [Example 55, 3-{4-Chloro-3-[2-(4-phenoxy-phenyl)-ethyl]-phenyl}-5-methanesulfonyl-1-(3-morpholin-4-yl-propyl)-4,5,6,7-tetrahydro-1H-pyrazolo[4,3-c]pyridine] |
| 80 | CS(=O)(=O)N1CCc2c(c(-c3ccc(Cl)c(C#Cc4ccc(Cl)cc4)c3)nn2CC(O)CN2CCCCC2)C1 (stereo not shown) [Example 125, 1-{3-[4-Chloro-3-(4-chloro-phenylethynyl)-phenyl]-5-methanesulfonyl-4,5,6,7-tetrahydro-pyrazolo[4,3-c]pyridin-1-yl}-3-piperidin-1-yl-propan-2-ol] |
| 120 | CS(=O)(=O)N1CCc2c(c(-c3ccc(Cl)c(CCc4ccc(Cl)c(CNCc5ccccc5)c4)c3)nn2CCCN2CCOCC2)C1 [Example 288, 1-[2-Chloro-5-(2-{2-chloro-5-[5-(methylsulfonyl)-1-(3-morpholin-4-ylpropyl)-4,5,6,7-tetrahydro-1H-pyrazolo[4,3-c]pyridin-3-yl]phenyl}ethyl)phenyl]-N-(phenylmethyl)methanamine] |
| 50 | C[C@H]1COCCN1CCCn1nc(-c2ccc(Cl)c(C#Cc3ccc(Cl)c(COC4CCNC4)c3)c2)c2c1CCN(C(=O)C(N)=O)C2 (stereo partly drawn) [Example 275, (S)-2-[3-[4-Chloro-3-[4-chloro-3-(pyrrolidin-3-yloxymethyl)-phenylethynyl]-phenyl}-1-[3-(3-methyl-morpholin-4-yl)-propyl]-1,4,6,7-tetrahydro-pyrazolo[4,3-c]pyridin-5-yl}-2-oxo-acetamide] |
| 30 | CN1CCc2ccc(C#Cc3cc(-c4nn(CCCN5CCN(c6ccccc6)CC5)c5c4CN(S(C)(=O)=O)CC5)ccc3Cl)cc2C1 [Example 226, 7-[(2-Chloro-5-{5-(methylsulfonyl)-1-[3-(4-phenylpiperazin-1-yl)propyl]-4,5,6,7-tetrahydro-1H-pyrazolo[4,3-c]pyridin-3-yl}phenyl)ethynyl]-2-methyl-1,2,3,4-tetrahydroisoquinoline] |

same assay, conditions: CatS IC50

| SMILES | IC50 [nM] |
| --- | --- |
| NC(=O)N1CCc2c(c(-c3ccc(Cl)c(C#Cc4ccc(CNCc5ccccc5Cl)cc4)c3)nn2CCCN2CCSCC2)C1 [Example 488, 3-(4-Chloro-3-{[4-({[(2-chlorophenyl)methyl]amino}methyl)phenyl]ethynyl}phenyl)-1-(3-thiomorpholin-4-ylpropyl)-1,4,6,7-tetrahydro-5H-pyrazolo[4,3-c]pyridine-5-carboxamide] | 140 |
| CS(=O)(=O)N1CCc2c(c(-c3ccc(Cl)c(C#Cc4ccc(CNCc5ccc(Cl)cc5)cc4)c3)nn2CCCN2CC[C@@H](O)C2)C1 [Example 383, (3R)-1-{3-[3-(4-Chloro-3-{[4-({[(4-chlorophenyl)methyl]amino}methyl)phenyl]ethynyl}phenyl)-5-(methylsulfonyl)-4,5,6,7-tetrahydro-1H-pyrazolo[4,3-c]pyridin-1-yl]propyl}pyrrolidin-3-ol] | 120 |
| CS(=O)(=O)N1CCc2c(c(-c3ccc(Cl)c(C#Cc4cccc(CNCc5ccc(Cl)cc5)c4)c3)nn2CCCN2C[C@@H]3C[C@H]2CO3)C1 [Example 440, 1-[3-({2-Chloro-5-[5-(methylsulfonyl)-1-{3-[(1S,4S)-2-oxa-5-azabicyclo[2.2.1]hept-5-yl]propyl}-4,5,6,7-tetrahydro-1H-pyrazolo[4,3-c]pyridin-3-yl]phenyl}ethynyl)phenyl]-N-[(4-chlorophenyl)methyl]methanamine] | 390 |
| CS(=O)(=O)N1CCc2c(c(-c3ccc(Cl)c(C#Cc4ccccn4)c3)nn2C[C@@H](O)CN2CCC(C3CCNCC3)CC2)C1 [Example 473, (2S)-1-(4,4′-Bipiperidin-1-yl)-3-{3-[4-chloro-3-(pyridin-2-ylethynyl)phenyl]-5-(methylsulfonyl)-4,5,6,7-tetrahydro-1H-pyrazolo[4,3-c]pyridin-1-yl}propan-2-ol] | 120 |
| Cc1ccccc1CNCc1ccc(C#Cc2cc(-c3nn(CCCN4CCSCC4)c4c3CN(C(N)=O)CC4)ccc2Cl)cc1 [Example 532, 3-(4-Chloro-3-{[4-({[(2-methylphenyl)methyl]amino}methyl)phenyl]ethynyl}phenyl)-1-(3-thiomorpholin-4-ylpropyl)-1,4,6,7-tetrahydro-5H-pyrazolo[4,3-c]pyridine-5-carboxamide] | 90 |
